Laboratory results: patent US10316017B2, “COT modulators and methods of use thereof” (Gilead Sciences, Inc., priority 2015, dated 2019)
pEC50, pIC50: −log10 of the molar value.

How the values were obtained:
[1] = system: TNFα production in LPS-stimulated human monocytes; experiment: Cot Monocyte TNFα Cell Based Assay; settings: Homo sapiens, Monocyte, TNFα in LPS-stimulated human monocytes; read-out: EC50 TNF
Summary of the method: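 Cells at 5,000/well were pretreated with compound for 1 h at 37 °C (0.5% DMSO final), then stimulated with 50 pg/ml LPS for 4 h at 37 °C. Supernatant TNFα was measured by two-antibody TR-FRET after overnight room-temperature incubation; values are percent of control between unstimulated and stimulated wells.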

[2] = target: T1, human Cot catalytic domain (30-397 amino acids) (Homo sapiens, UniProt P41279); experiment: High Throughput Cot Biochemical Assay (KinEASE TR-FRET); settings: Cot biochemical HTRF (KinEASE TR-FRET) assay; read-out: IC50 HTRF
T1 construct: Purified recombinant human Cot catalytic domain (30-397 amino acids) was purchased from Cama Biosciences; purchased Cama Biosciences (so in the source)
Summary of the method: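 Reaction of 5 nM recombinant human Cot catalytic domain (aa 30-397) with 1 μM STK3 peptide (XL665-labeled) and 400 μM ATP in 10 mM MOPS pH 7.0, 10 mM MgOAc, 1 mM DTT, 0.5 mg/mL BSA, 0.1% DMSO. Phosphopeptide detected by TR-FRET with europium anti-phospho antibody.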

T1 sequence (P41279 30-397): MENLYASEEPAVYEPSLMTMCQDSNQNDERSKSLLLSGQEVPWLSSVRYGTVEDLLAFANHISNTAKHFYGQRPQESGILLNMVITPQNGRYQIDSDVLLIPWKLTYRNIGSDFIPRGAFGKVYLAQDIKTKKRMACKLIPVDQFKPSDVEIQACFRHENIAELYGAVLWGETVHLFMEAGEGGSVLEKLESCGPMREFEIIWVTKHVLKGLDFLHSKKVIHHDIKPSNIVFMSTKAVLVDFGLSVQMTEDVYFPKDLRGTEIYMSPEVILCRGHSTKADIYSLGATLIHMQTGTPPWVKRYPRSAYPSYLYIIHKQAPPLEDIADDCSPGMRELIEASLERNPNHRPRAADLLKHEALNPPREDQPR

Compound	pEC50 [1]	pIC50 [2]
CC(C)(C)N1CCC(n2cc([C@@H](Nc3cc(Cl)c4ncc(C#N)c(Nc5cc(Cl)c(F)cc5F)c4c3)c3ccc(Cl)cc3)nn2)CC1 [Example 693, (S)-6-(((1-(1-(tert-butyl)piperidin-4-yl)-1H-1,2,3-triazol-4-yl)(4-chlorophenyl)methyl)amino)-8-chloro-4-((5-chloro-2,4-difluorophenyl)amino)quinoline-3-carbonitrile]	5.81	7.34
CC(C)(C)N1CCC(n2cc([C@@H](Nc3cc(Cl)c4ncc(C#N)c(Nc5c(F)ccc(Cl)c5F)c4c3)c3ccc(Cl)cc3)nn2)CC1 [Example 694, (S)-6-(((1-(1-(tert-butyl)piperidin-4-yl)-1H-1,2,3-triazol-4-yl)(4-chlorophenyl)methyl)amino)-8-chloro-4-((3-chloro-2,6-difluorophenyl)amino)quinoline-3-carbonitrile]	6.07	7.70
CC(C)(C)N1CCC(n2cc([C@@H](Nc3cc(Cl)c4ncc(C#N)c(Nc5ccc(F)c(Cl)c5F)c4c3)c3ccc(Cl)cc3)nn2)CC1 [Example 695, (S)-6-(((1-(1-(tert-butyl)piperidin-4-yl)-1H-1,2,3-triazol-4-yl)(4-chlorophenyl)methyl)amino)-8-chloro-4-((3-chloro-2,4-difluorophenyl)amino)quinoline-3-carbonitrile]	6.36	7.72
CC(C)(C)N1CCC(n2cc([C@@H](Nc3cc(Cl)c4ncc(C#N)c(Nc5cc(F)cc(Cl)c5)c4c3)c3ccc(Cl)cc3)nn2)CC1 [Example 696, (S)-6-(((1-(1-(tert-butyl)piperidin-4-yl)-1H-1,2,3-triazol-4-yl)(4-chlorophenyl)methyl)amino)-8-chloro-4-((3-chloro-5-fluorophenyl)amino)quinoline-3-carbonitrile]	5.48	7.07
CC(Nc1c(C#N)cnc2c(Cl)cc(N[C@@H](c3ccc(Cl)cc3)c3cn(C4CCN(C(C)(C)C)CC4)nn3)cc12)c1ccccn1 (stereo partly drawn) [Example 697, 6-(((S)-(1-(1-(tert-butyl)piperidin-4-yl)-1H-1,2,3-triazol-4-yl)(4-chlorophenyl)methyl)amino)-8-chloro-4-((1-(pyridin-2-yl)ethyl)amino)quinoline-3-carbonitrile]	4.77	< 5.00
CC(C)(C)N1CCC(n2cc([C@@H](Nc3cc(Cl)c4ncc(C#N)c(NCC5CC5)c4c3)c3ccc(Cl)cc3)nn2)CC1 [Example 698, (S)-6-(((1-(1-(tert-butyl)piperidin-4-yl)-1H-1,2,3-triazol-4-yl)(4-chlorophenyl)methyl)amino)-8-chloro-4-((cyclopropylmethyl)amino) quinoline-3-carbonitrile]	4.79	6.50
CC(Nc1c(C#N)cnc2c(Cl)cc(N[C@@H](c3ccc(Cl)cc3)c3cn(C4CCN(C(C)(C)C)CC4)nn3)cc12)c1cccnc1 (stereo partly drawn) [Example 699, 6-(((S)-(1-(1-(tert-butyl)piperidin-4-yl)-1H-1,2,3-triazol-4-yl)(4-chlorophenyl)methyl)amino)-8-chloro-4-((1-(pyridin-3-yl)ethyl)amino)quinoline-3-carbonitrile]	4.98	6.42
N#Cc1cnc2c(Cl)cc(N[C@@H](c3ccc(Cl)cc3)c3cn(C4CCN(C5COC5)CC4)nn3)cc2c1Nc1ccc(O)c(Cl)c1 [Example 700, (S)-8-chloro-4-((3-chloro-4-hydroxyphenyl)amino)-6-(((4-chlorophenyl)(1-(1-(oxetan-3-yl)piperidin-4-yl)-1H-1,2,3-triazol-4-yl)methyl)amino) quinoline-3-carbonitrile]	5.65	6.35
CC(C)(C)N1CCC(n2cc([C@@H](Nc3cc(Cl)c4ncc(C#N)c(Nc5ccc(O)c(Cl)c5)c4c3)c3ccc(Cl)cc3)nn2)CC1 [Example 701, (S)-6-(((1-(1-(tert-butyl)piperidin-4-yl)-1H-1,2,3-triazol-4-yl)(4-chlorophenyl)methyl)amino)-8-chloro-4-((3-chloro-4-hydroxyphenyl)amino) quinoline-3-carbonitrile]	6.10	7.32
CC(C)(C)N1CCC(n2cc([C@@H](Nc3cc(Cl)c4ncc(C#N)c(NC5CCC5)c4c3)c3ccc(Cl)cc3)nn2)CC1 [Example 702, (S)-6-(((1-(1-(tert-butyl)piperidin-4-yl)-1H-1,2,3-triazol-4-yl)(4-chlorophenyl)methyl)amino)-8-chloro-4-(cyclobutylamino)quinoline-3-carbonitrile]	4.75	6.50
CC(C)(C)N1CCC(n2cc([C@@H](Nc3cc(Cl)c4ncc(C#N)c(NCCc5ccccc5)c4c3)c3ccc(Cl)cc3)nn2)CC1 [Example 703, (S)-6-(((1-(1-(tert-butyl)piperidin-4-yl)-1H-1,2,3-triazol-4-yl)(4-chlorophenyl)methyl)amino)-8-chloro-4-(phenethylamino)quinoline-3-carbonitrile]	4.92	7.02
C[C@@H](Nc1c(C#N)cnc2c(Cl)cc(N[C@@H](c3ccc(Cl)cc3)c3cn(C4CCN(C(C)(C)C)CC4)nn3)cc12)c1ccccc1 [Example 704, 6-(((S)-(1-(1-(tert-butyl)piperidin-4-yl)-1H-1,2,3-triazol-4-yl)(4-chlorophenyl)methyl)amino)-8-chloro-4-(((R)-1-phenylethyl)amino)quinoline-3-carbonitrile]	5.45	7.43
C[C@H](Nc1c(C#N)cnc2c(Cl)cc(N[C@@H](c3ccc(Cl)cc3)c3cn(C4CCN(C(C)(C)C)CC4)nn3)cc12)c1ccccc1 [Example 705, 6-(((S)-(1-(1-(tert-butyl)piperidin-4-yl)-1H-1,2,3-triazol-4-yl)(4-chlorophenyl)methyl)amino)-8-chloro-4-(((S)-1-phenylethyl)amino)quinoline-3-carbonitrile]	4.91	5.55
CC(C)(C)N1CCC(n2cc([C@@H](Nc3cc(Cl)c4ncc(C#N)c(NCc5ccccc5)c4c3)c3ccc(Cl)cc3)nn2)CC1 [Example 706, (S)-4-(benzylamino)-6-(((1-(1-(tert-butyl)piperidin-4-yl)-1H-1,2,3-triazol-4-yl)(4-chlorophenyl)methyl)amino)-8-chloroquinoline-3-carbonitrile]	4.89	7.02
CC1(C)CC(n2cc([C@@H](Nc3cc(F)c4ncc(C#N)c(Nc5ccc(F)c(Cl)c5)c4c3)c3ccc(Cl)cc3)nn2)CC(C)(C)N1 [Example 707, (S)-4-((3-chloro-4-fluorophenyl)amino)-6-(((4-chlorophenyl)(1-(2,2,6,6-tetramethylpiperidin-4-yl)-1H-1,2,3-triazol-4-yl)methyl)amino)-8-fluoroquinoline-3-carbonitrile]	5.52	6.87
N#Cc1cnc2c(F)cc(N[C@@H](c3ccc(Cl)cc3)c3cn(C4CCN(C5COC5)CC4)nn3)cc2c1Nc1ccc(F)c(Cl)c1 [Example 708, (S)-4-((3-chloro-4-fluorophenyl)amino)-6-(((4-chlorophenyl)(1-(1-(oxetan-3-yl)piperidin-4-yl)-1H-1,2,3-triazol-4-yl)methyl)amino)-8-fluoroquinoline-3-carbonitrile]	6.27	6.99
